These results are taken from ChEMBL document CHEMBL1201862, “PubChem BioAssay data set” (2004).

The structures appear in SMILES notation.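 How tested: cells in 96-well plates exposed to compound for 48 hours at five concentrations. Here, GI50 denotes the concentration required for 50% inhibition of growth.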 Calls of active or inactive are those of the source. Cut-off read from the data, not from the text of the source: active = GI50 up to about 1.1 µM and inactive = higher.

Some test systems named below: 786-0; A549; ACHN; CCRF-CEM; DU-145; HT-29; IGROV-1; MCF7; NCI-H23; NCI-H522; NCI/ADR-RES; OVCAR-4; OVCAR-8; PC-3; SF-295; SF-539; SK-MEL-2; SNB-19; T47D; U-251.
What all share (test): growth of human tumour cells (NCI), 48 h

For `CCCCCc1nnc(NS(=O)(=O)c2ccc(NC(=O)OCC(C)C)cc2)s1`, the GI50 with 786-0 was 40.8 µM (inactive); in the assay with A549, 34.2 µM (inactive); in the assay on ACHN, 34.7 µM (inactive); in the assay on CCRF-CEM, 26.4 µM (inactive); in the assay with DU-145, 52 µM (inactive); with HT-29, 26.8 µM (inactive). The GI50 in the assay on IGROV-1 is 25.7 µM (inactive); with MCF7, 37.8 µM (inactive); with NCI-H23 it was 53.2 µM (inactive); in the assay on NCI-H522, 24.5 µM (inactive); in the assay on NCI/ADR-RES, 39.4 µM (inactive); with OVCAR-4, 26.1 µM (inactive). For the same compound, the GI50 with OVCAR-8 is 32.2 µM (inactive); with PC-3, 36.8 µM (inactive); in the assay on SF-295 it was 37.5 µM (inactive); in the assay with SF-539, 26.8 µM (inactive); in the assay with SK-MEL-2, 19.1 µM (inactive); in the assay with SNB-19 it was 69.3 µM (inactive). Besides, the GI50 was 34.2 µM (inactive) in the assay on T47D and 42.9 µM (inactive) in the assay with U-251.

As to `CC(=O)O[C@H]1C(=O)[C@@]2(C)[C@H]([C@H](OC(=O)c3ccccc3)[C@]3(O)C[C@H](OC(=O)[C@H](O)[C@@H](NC(=O)c4ccc(N)cc4)c4ccccc4)C(C)=C1C3(C)C)[C@]1(OC(C)=O)CO[C@@H]1C[C@@H]2O`, the GI50 was 0.0369 µM (active) with 786-0; 0.00847 µM (active) in the assay on A549; 0.711 µM (active) in the assay on ACHN; < 0.005 µM (active) in the assay with CCRF-CEM; 0.0191 µM (active) with DU-145; < 0.005 µM (active) in the assay with HT-29. The GI50 with IGROV-1 was 0.014 µM (active); in the assay with MCF7 it was < 0.005 µM (active); in the assay with NCI-H522, < 0.005 µM (active); in the assay with NCI/ADR-RES, 15.3 µM (inactive); in the assay on OVCAR-4 it was > 31.8 µM (inactive); in the assay on OVCAR-8, 0.0105 µM (active). Further, the GI50 is < 0.005 µM (active) in the assay on PC-3; 0.135 µM (active) with SF-295; < 0.005 µM (active) with SF-539; < 0.005 µM (active) in the assay with SK-MEL-2; 0.00675 µM (active) in the assay on SNB-19; < 0.005 µM (active) in the assay on T47D. Besides, in the assay with U-251, the GI50 was < 0.005 µM (active).

For `COc1cc2ccc(=O)oc2cc1O` [SCOPOLETIN], the GI50 in the assay with 786-0 was > 100 µM (inactive); in the assay with A549 it was 40.1 µM (inactive); in the assay on ACHN, > 100 µM (inactive); in the assay on CCRF-CEM, 30.4 µM (inactive); in the assay on DU-145, > 100 µM (inactive); in the assay on HT-29, 161 µM (inactive). Moreover, the GI50 was 69.3 µM (inactive) in the assay on IGROV-1; 118 µM (inactive) with MCF7; 69 µM (inactive) in the assay with NCI-H23; 67.8 µM (inactive) in the assay with NCI-H522; 56.2 µM (inactive) with NCI/ADR-RES; 101 µM (inactive) in the assay on OVCAR-4. Also, the GI50 is 52.1 µM (inactive) with OVCAR-8; > 100 µM (inactive) with PC-3; 19.7 µM (inactive) with SF-295; 53.3 µM (inactive) in the assay with SF-539; 109 µM (inactive) with SK-MEL-2; 44 µM (inactive) in the assay on SNB-19. For the same compound, the GI50 in the assay with T47D was > 100 µM (inactive); in the assay with U-251, 24.8 µM (inactive).

For the compound `Cc1nnc2sc(Cc3cnc(N)s3)nn12`, the GI50 in the assay with 786-0, with A549, with ACHN, in the assay on CCRF-CEM, with DU-145 and with HT-29 was > 100 µM (inactive) each time. The GI50 with IGROV-1 is 91.4 µM (inactive); in the assay on MCF7 it was > 100 µM (inactive); in the assay on NCI-H23, > 100 µM (inactive); in the assay with NCI-H522 it was > 100 µM (inactive); in the assay with NCI/ADR-RES, > 100 µM (inactive); in the assay on OVCAR-4, > 100 µM (inactive). For the same compound, the GI50 in the assay with OVCAR-8, with PC-3, with SF-539, with SK-MEL-2, with SNB-19 and with T47D was > 100 µM (inactive) in each case. Besides, the GI50 in the assay on U-251 was > 100 µM (inactive).

On to `O=C(/C=C/c1cccc(Oc2ccccc2)c1)NCc1ccc(C(=O)NCc2ccccc2)cc1`, for which the GI50 is 29 µM (inactive) with 786-0; > 100 µM (inactive) with A549; 71 µM (inactive) in the assay with ACHN; > 100 µM (inactive) with CCRF-CEM; > 100 µM (inactive) in the assay on DU-145; 17.3 µM (inactive) in the assay with HT-29. The GI50 with IGROV-1 was 79.8 µM (inactive); in the assay with MCF7, > 100 µM (inactive); with NCI-H23, 31 µM (inactive); with NCI-H522 it was 98.9 µM (inactive); in the assay on NCI/ADR-RES it was 35.3 µM (inactive); in the assay with OVCAR-4, 31 µM (inactive). Also, the GI50 in the assay with OVCAR-8 is 14.1 µM (inactive); with PC-3, > 100 µM (inactive); with SF-295, 21.8 µM (inactive); in the assay on SF-539, 0.865 µM (active); with SK-MEL-2, 26 µM (inactive); in the assay on SNB-19, 32.4 µM (inactive). In addition, the GI50 with T47D was > 100 µM (inactive); in the assay on U-251, 38.1 µM (inactive).

As for `CCCCCCCCCCCCP(=O)(O)OCC(N)C(=O)O` (configuration not stated), the GI50 was 27.5 µM (inactive) with 786-0; 24.8 µM (inactive) in the assay with A549; 40.3 µM (inactive) in the assay on ACHN; 40.4 µM (inactive) in the assay with DU-145; 33.7 µM (inactive) in the assay on HT-29; 30.1 µM (inactive) in the assay with IGROV-1. In addition, the GI50 was 42.1 µM (inactive) with MCF7; 48.9 µM (inactive) in the assay on NCI-H23; 5.22 µM (inactive) in the assay on NCI-H522; 31.4 µM (inactive) in the assay on NCI/ADR-RES; 76.2 µM (inactive) with OVCAR-4; 35.5 µM (inactive) with OVCAR-8. Besides, the GI50 was 16 µM (inactive) in the assay with PC-3; 17.4 µM (inactive) in the assay with SF-295; 20.7 µM (inactive) in the assay with SF-539; 27.9 µM (inactive) with SK-MEL-2; 16.6 µM (inactive) in the assay on SNB-19; > 100 µM (inactive) in the assay with T47D. In addition, in the assay on U-251, the GI50 is 11.4 µM (inactive).

Turning to `N#Cc1ccc(/C=N/NC(=O)CSCC(=O)N/N=C/c2ccc(C#N)cc2)cc1`, the GI50 in the assay on 786-0, in the assay on A549, in the assay on ACHN, in the assay on DU-145, in the assay on HT-29 and in the assay with IGROV-1 was > 100 µM (inactive) in each case. The GI50 with MCF7 is > 100 µM (inactive); in the assay on NCI-H23, > 100 µM (inactive); in the assay with NCI-H522, > 100 µM (inactive); with NCI/ADR-RES, > 100 µM (inactive); in the assay with OVCAR-4, > 100 µM (inactive); in the assay on OVCAR-8, 53.1 µM (inactive). The GI50 in the assay on PC-3, in the assay with SF-295, with SF-539, in the assay with SK-MEL-2, with SNB-19 and in the assay on T47D was > 100 µM (inactive) in each case. Also, in the assay on U-251, the GI50 was 48.1 µM (inactive).

Turning to `CC(C)(C)[Si](C)(C)OC1/C(=C/C#N)C(n2ccc(=O)[nH]c2=O)OC1CO` (configuration not stated), the GI50 in the assay with 786-0, with A549, with ACHN, in the assay with DU-145, in the assay on HT-29 and in the assay with MCF7 was > 100 µM (inactive) throughout. Moreover, the GI50 in the assay with NCI-H23, with NCI-H522, in the assay with NCI/ADR-RES, in the assay on OVCAR-4, in the assay with OVCAR-8 and in the assay with PC-3 was > 100 µM (inactive) throughout. Moreover, the GI50 in the assay on SF-295, in the assay on SF-539, with SK-MEL-2, in the assay on SNB-19, with T47D and with U-251 was > 100 µM (inactive) throughout.

`OCC1OC(O)C(/N=C\c2ccc3c(c2)OCO3)C(O)C1O` (configuration not stated): the GI50 in the assay with 786-0, in the assay on A549, in the assay with ACHN, with DU-145, in the assay with HT-29 and with IGROV-1 was > 100 µM (inactive) each time. Besides, the GI50 with MCF7, in the assay with NCI-H23, with NCI-H522, with NCI/ADR-RES, in the assay on OVCAR-4 and with OVCAR-8 was > 100 µM (inactive) each time. Further, the GI50 in the assay on PC-3, in the assay on SF-295, in the assay with SF-539, with SK-MEL-2, in the assay on SNB-19 and with T47D was > 100 µM (inactive) throughout. For the same compound, the GI50 with U-251 was > 100 µM (inactive).

Turning to `CC(=O)OCC(OC(C)=O)C(OC(C)=O)C(OC(C)=O)C(C=NN(C(C)=O)S(=O)(=O)c1ccc(/C=C2\NC(=O)NC2=O)cc1)OC(C)=O` (configuration not stated), the GI50 with 786-0 is > 100 µM (inactive); with A549, > 100 µM (inactive); with ACHN, > 100 µM (inactive); in the assay on CCRF-CEM it was 84.3 µM (inactive); in the assay on DU-145, > 100 µM (inactive); with HT-29, > 100 µM (inactive). Besides, the GI50 with IGROV-1, in the assay with MCF7, in the assay with NCI-H23, with NCI-H522, with NCI/ADR-RES and in the assay on OVCAR-4 was > 100 µM (inactive) in each case. In addition, the GI50 in the assay with OVCAR-8, with PC-3, with SF-295, with SK-MEL-2, in the assay with SNB-19 and in the assay with T47D was > 100 µM (inactive) each time. Moreover, the GI50 in the assay on U-251 is > 100 µM (inactive).
